{"source": "patent EP0398143B1", "about": "“Labeled chemotactic peptides to image focal sites of infection or inflammation” (THE GENERAL HOSPITAL CORPORATION, priority 1989, dated 1990)", "origin": "cited, not measured here", "molecular_target": "T1, receptors on human neutrophils (Homo sapiens, UniProt P21462)", "T1 construct": "host or cells: human neutrophils (endogenous receptor)", "T1 sequence (P21462 1-350)": "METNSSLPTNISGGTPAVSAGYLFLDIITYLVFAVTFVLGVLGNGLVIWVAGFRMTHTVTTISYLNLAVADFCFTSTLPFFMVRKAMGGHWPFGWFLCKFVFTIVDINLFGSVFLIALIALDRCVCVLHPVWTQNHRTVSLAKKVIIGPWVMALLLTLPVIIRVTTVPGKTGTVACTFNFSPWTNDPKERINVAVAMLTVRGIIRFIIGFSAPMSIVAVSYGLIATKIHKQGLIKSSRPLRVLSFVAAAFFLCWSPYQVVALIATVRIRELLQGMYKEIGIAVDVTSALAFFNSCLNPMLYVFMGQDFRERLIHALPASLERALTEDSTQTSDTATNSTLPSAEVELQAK", "conditions": "peptide labeled with ¹²⁵I at the Tyr residue", "note": "Non-standard residues stand in square brackets, D forms with d. Residues, ends and D or L forms follow the SMILES beside them. *: point of attachment. Nle = CCCC[C@H](N)C(=O)O; For = O=C*", "data": [{"smiles": "CCCC[C@H](NC=O)C(=O)N[C@@H](CC(C)C)C(=O)N[C@@H](Cc1ccccc1)C(=O)N[C@@H](CCCC)C(=O)N[C@@H](Cc1ccc(O)cc1)C(=O)N[C@@H](CCCCN)C(=O)O", "note": "[N-formyl-Nle-Leu-Phe-Nle-Tyr-Lys] (For-[Nle]LF[Nle]YK-OH)", "values": [{"measurement": "binding to receptors on human neutrophils", "result": "bind strongly"}]}]}
